Experimental data: patent publication US6525001B1, “Substituted pyrimidine and pyridine herbicides” (Mid-American Commercialization Corporation, priority 1997, dated 2003)

Legend:
Format in all cases: in vivo
Parameters in all cases: key: 0 is no effect; 10 is complete control
[1] = system: rice (Oryza sativa); test: Test B flood test
In short: (§1)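 Plants were grown to the 2-leaf stage before treatment with test chemical, then held in a greenhouse for twelve to sixteen days. Injury was visually rated against untreated controls on a 0–10 scale, where 0 is no effect and 10 is complete control.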

[2] = system: duck salad (Heteranthera limosa); test: Test B flood test
In short: as §1

[3] = system: smallflower flatsedge (Cyperus difformis); test: Test B flood test
In short: as §1

[4] = system: bamyardgrass (Echinochloa crus-galli); test: Test B flood test
In short: as §1

[5] = system: momingglory (Ipomoea hederacea); test: Test B pre-/postemergence
In short: (§2)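 Seeds were planted and sprayed preemergence, while plants at 2 to 18 cm (1- to 4-leaf stage) were sprayed postemergence at the same time, with test chemical in a non-phytotoxic solvent mixture containing surfactant. After twelve to sixteen days in a greenhouse, injury was rated visually against untreated controls on a 0–10 scale.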

[6] = system: velvetleaf (Abutilon theophrasti); test: Test B pre-/postemergence
In short: as §2

[7] = system: pigweed (Amaranthus retroflexus); test: Test B pre-/postemergence
In short: as §2

[8] = system: blackgrass (Alopecurus myosuroides); test: Test B pre-/postemergence
In short: as §2

[9] = system: wheat (Triticum aestivum); test: Test B pre-/postemergence
In short: as §2

[10] = system: broadleaf signalgrass (Brachiaria decumbens); test: Test B pre-/postemergence
In short: as §2

[11] = system: soybean (Glycine max); test: Test B pre-/postemergence
In short: as §2

[12] = system: purple nutsedge (Cyperus rotundus); test: Test B pre-/postemergence
In short: as §2

[13] = system: giant foxtail (Setaria faberii); test: Test B pre-/postemergence
In short: as §2

[14] = system: sugar beet (Beta vulgaris); test: Test B pre-/postemergence
In short: as §2

[15] = system: bedstraw (Galium aparine); test: Test B pre-/postemergence
In short: as §2

[16] = system: wild oat (Avena fatua); test: Test B pre-/postemergence
In short: as §2

[17] = system: corn (Zea mays); test: Test B pre-/postemergence
In short: as §2

[18] = system: rape (Brassica napus); test: Test B pre-/postemergence
In short: as §2

[19] = system: crabgrass (Digitaria sanguinalis); test: Test B pre-/postemergence
In short: as §2

[20] = system: cocklebur (Xanthium strumarium); test: Test B pre-/postemergence; details: Preemergence
In short: as §2

[21] = Rate 125 g/ha, Postemergence, flood test
[22] = Rate 250 g/ha, Postemergence (flood test species)
[23] = Rate 500 g/ha, Postemergence (flood test species)

## Cc1cnc(-c2ccccc2)nc1Cn1ccc(C(F)(F)F)n1 [Compound 7]
[1]; [21]
  Plant response rating, Rice: 0
[1]; [22]
  Plant response rating, Rice: 0
[1]; [23]
  Plant response rating, Rice: 0
[2]; [21]
  Plant response rating, Ducksalad: 0
[2]; [22]
  Plant response rating, Ducksalad: 0
[2]; [23]
  Plant response rating, Ducksalad: 2
[3]; [21]
  Plant response rating, S. Flatsedge: 1
[3]; [22]
  Plant response rating, S. Flatsedge: 2
[3]; [23]
  Plant response rating, S. Flatsedge: 4
[4]; [21]
  Plant response rating, Barnyardgrass: 1
[4]; [22]
  Plant response rating, Barnyardgrass: 1
[4]; [23]
  Plant response rating, Barnyardgrass: 2
[5]; Rate 125 g/ha, Postemergence
  Plant response rating, Morningglory: 1
[5]; Rate 125 g/ha, Preemergence
  Morningglory plant response rating: 0
[5]; Rate 250 g/ha, Postemergence
  Plant response rating, Morningglory: 2
[5]; Rate 250 g/ha, Preemergence
  Plant response rating, Morningglory: 0
[5]; Rate 500 g/ha, Postemergence
  Plant response rating, Morningglory: 5
[5]; Rate 500 g/ha, Preemergence
  Plant response rating, Morningglory: 0
[6]; Rate 125 g/ha, Postemergence
  Plant response rating, Velvetleaf: 1
[6]; Rate 125 g/ha, Preemergence
  Velvetleaf plant response rating: 0
[6]; Rate 250 g/ha, Postemergence
  Plant response rating, Velvetleaf: 1
[6]; Rate 250 g/ha, Preemergence
  Plant response rating, Velvetleaf: 0
[6]; Rate 500 g/ha, Postemergence
  Plant response rating, Velvetleaf: 2
[6]; Rate 500 g/ha, Preemergence
  Plant response rating, Velvetleaf: 0
[7]; Rate 125 g/ha, Postemergence
  Plant response rating, Redroot pigweed: 3
[7]; Rate 125 g/ha, Preemergence
  Redroot pigweed plant response rating: 0
[7]; Rate 250 g/ha, Postemergence
  Plant response rating, Redroot pigweed: 7
[7]; Rate 250 g/ha, Preemergence
  Plant response rating, Redroot pigweed: 2
[7]; Rate 500 g/ha, Postemergence
  Plant response rating, Redroot pigweed: 7
[7]; Rate 500 g/ha, Preemergence
  Plant response rating, Redroot pigweed: 2
[8]; Rate 125 g/ha, Postemergence
  Plant response rating, Blackgrass: 0
[8]; Rate 125 g/ha, Preemergence
  Blackgrass plant response rating: 0
[8]; Rate 250 g/ha, Preemergence
  Plant response rating, Blackgrass: 0
[8]; Rate 500 g/ha, Postemergence
  Plant response rating, Blackgrass: 1
[8]; Rate 500 g/ha, Preemergence
  Plant response rating, Blackgrass: 0
[9]; Rate 125 g/ha, Postemergence
  Plant response rating, Wheat: 0
[9]; Rate 125 g/ha, Preemergence
  Wheat plant response rating: 0
[9]; Rate 250 g/ha, Postemergence
  Plant response rating, Wheat: 0
[9]; Rate 250 g/ha, Preemergence
  Plant response rating, Wheat: 0
[9]; Rate 500 g/ha, Postemergence
  Plant response rating, Wheat: 0
[9]; Rate 500 g/ha, Preemergence
  Plant response rating, Wheat: 0
[10]; Rate 125 g/ha, Postemergence
  Plant response rating, B. signalgrass: 1
[10]; Rate 125 g/ha, Preemergence
  B. signalgrass plant response rating: 0
[10]; Rate 250 g/ha, Postemergence
  Plant response rating, B. signalgrass: 1
[10]; Rate 250 g/ha, Preemergence
  Plant response rating, B. signalgrass: 0
[10]; Rate 500 g/ha, Postemergence
  Plant response rating, B. signalgrass: 1
[10]; Rate 500 g/ha, Preemergence
  Plant response rating, B. signalgrass: 0
[11]; Rate 125 g/ha, Postemergence
  Plant response rating, Soybean: 3
[11]; Rate 125 g/ha, Preemergence
  Soybean plant response rating: 0
[11]; Rate 250 g/ha, Postemergence
  Plant response rating, Soybean: 3
[11]; Rate 250 g/ha, Preemergence
  Plant response rating, Soybean: 0
[11]; Rate 500 g/ha, Postemergence
  Plant response rating, Soybean: 5
[11]; Rate 500 g/ha, Preemergence
  Plant response rating, Soybean: 0
[12]; Rate 125 g/ha, Postemergence
  Plant response rating, Nutsedge: 0
[12]; Rate 125 g/ha, Preemergence
  Nutsedge plant response rating: 0
[12]; Rate 250 g/ha, Postemergence
  Plant response rating, Nutsedge: 0
[12]; Rate 250 g/ha, Preemergence
  Plant response rating, Nutsedge: 0
[12]; Rate 500 g/ha, Postemergence
  Plant response rating, Nutsedge: 0
[12]; Rate 500 g/ha, Preemergence
  Plant response rating, Nutsedge: 0
[13]; Rate 125 g/ha, Postemergence
  Plant response rating, Giant foxtail: 1
[13]; Rate 125 g/ha, Preemergence
  Giant foxtail plant response rating: 0
[13]; Rate 250 g/ha, Postemergence
  Plant response rating, Giant foxtail: 1
[13]; Rate 250 g/ha, Preemergence
  Plant response rating, Giant foxtail: 1
[13]; Rate 500 g/ha, Postemergence
  Plant response rating, Giant foxtail: 1
[13]; Rate 500 g/ha, Preemergence
  Plant response rating, Giant foxtail: 5
[14]; Rate 125 g/ha, Postemergence
  Plant response rating, Sugarbeets: 3
[14]; Rate 125 g/ha, Preemergence
  Sugarbeets plant response rating: 0
[14]; Rate 250 g/ha, Postemergence
  Plant response rating, Sugarbeets: 8
[14]; Rate 250 g/ha, Preemergence
  Plant response rating, Sugarbeets: 0
[14]; Rate 500 g/ha, Postemergence
  Plant response rating, Sugarbeets: 8
[14]; Rate 500 g/ha, Preemergence
  Plant response rating, Sugarbeets: 1
[15]; Rate 125 g/ha, Postemergence
  Plant response rating, Bedstraw: 3
[15]; Rate 125 g/ha, Preemergence
  Bedstraw plant response rating: 0
[15]; Rate 250 g/ha, Postemergence
  Plant response rating, Bedstraw: 3
[15]; Rate 250 g/ha, Preemergence
  Plant response rating, Bedstraw: 0
[15]; Rate 500 g/ha, Postemergence
  Plant response rating, Bedstraw: 3
[15]; Rate 500 g/ha, Preemergence
  Plant response rating, Bedstraw: 0
[16]; Rate 125 g/ha, Postemergence
  Plant response rating, Wild oats: 0
[16]; Rate 125 g/ha, Preemergence
  Wild oats plant response rating: 0
[16]; Rate 250 g/ha, Postemergence
  Plant response rating, Wild oats: 0
[16]; Rate 250 g/ha, Preemergence
  Plant response rating, Wild oats: 0
[16]; Rate 500 g/ha, Postemergence
  Plant response rating, Wild oats: 0
[16]; Rate 500 g/ha, Preemergence
  Plant response rating, Wild oats: 0
[17]; Rate 125 g/ha, Postemergence
  Plant response rating, Corn: 1
[17]; Rate 125 g/ha, Preemergence
  Corn plant response rating: 0
[17]; Rate 250 g/ha, Postemergence
  Plant response rating, Corn: 2
[17]; Rate 250 g/ha, Preemergence
  Plant response rating, Corn: 0
[17]; Rate 500 g/ha, Postemergence
  Plant response rating, Corn: 2
[17]; Rate 500 g/ha, Preemergence
  Plant response rating, Corn: 0
[18]; Rate 125 g/ha, Postemergence
  Plant response rating, Rape: 5
[18]; Rate 125 g/ha, Preemergence
  Rape plant response rating: 0
[18]; Rate 250 g/ha, Postemergence
  Plant response rating, Rape: 6
[18]; Rate 250 g/ha, Preemergence
  Plant response rating, Rape: 0
[18]; Rate 500 g/ha, Postemergence
  Plant response rating, Rape: 7
[18]; Rate 500 g/ha, Preemergence
  Plant response rating, Rape: 0
[19]; Rate 125 g/ha, Postemergence
  Plant response rating, Crabgrass: 0
[19]; Rate 125 g/ha, Preemergence
  Crabgrass plant response rating: 0
[19]; Rate 250 g/ha, Postemergence
  Plant response rating, Crabgrass: 2
[19]; Rate 250 g/ha, Preemergence
  Plant response rating, Crabgrass: 1
[19]; Rate 500 g/ha, Postemergence
  Plant response rating, Crabgrass: 2
[19]; Rate 500 g/ha, Preemergence
  Plant response rating, Crabgrass: 2
[20]; Rate 125 g/ha
  Cocklebur plant response rating: 0
[20]; Rate 250 g/ha
  Plant response rating, Cocklebur: 0
[20]; Rate 500 g/ha
  Plant response rating, Cocklebur: 0
